Results taken from patent US20080075786A1, “Antimicrobial agents derived from cream” (Universite de Montreal, priority 2006, published 2008).
Where two headings read alike, the source gives them in different places.

Tests used:
[1] = system: C. albicans SC5314 strain; assay: Antifungal assay against C. albicans (optical density at 630 nm); type: cell-based, Candida albicans; conditions: dextrose-free Sabouraud, 37° C., commercial FFA
Method: (§1) Fractionation of Blackcurrant Seed Oil. Journal of the American Oil Chemists Society 65: 755-760). […] Under constant stirring, the mixture was heated to 75° C., or until it became clear, and then cooled slowly to 2° C. After completion of urea crystallization at 2° C. (15 h), the UFFA enriched methanol phase was separated from the urea crystals by centrifugation (5 min) at 1000×g. […] Yields were determined gravimetrically. […] UV detection was used to monitor effluent at 215 nm. Water (10 ml) was added to each of the 45 collected HPLC fractions, and they were then extracted three times with hexane (3×10 ml). […] Antifungal assay using commercial FFA were done in quadruplicates. The antifungal activity was evaluated in 96-well microtiter plates (Costar 3595) using Sabouraud as incubating medium for A. fumigatus and dextrose-free Sabouraud for C. albicans. Spores of A. fumigatus (Jeanine Joly, Université de Montréal) were germinated at 25° C. on slant agar Sabouraud media. They were harvested by washing vigorously slant cultures with 5 ml of 0.9% NaCl. Coarse debris were removed by filtrating the Aspergillus spores suspension through a sterile cotton plugs inserted into a Pasteur pipet. Monodisperse spores suspensions were obtained following brief sonications in a water bath sonicator (Branson 1210). […] Blastospores of the C. albicans SC5314 strain were prepared as for germination inhibition assays (see above). […] Wells were washed three times with Sabouraud before optical reading.

[2] = system: mammalian cells; assay: Toxicity for mammalian cells in vitro; type: cell-based; conditions: thousand fold less concentrated solution than 10 mM; Bergsson et al., 2001; data not shown
[3] = system: C. albicans yeast cells; conditions: 10 mM; cited from earlier work
[4] = in vitro; conditions: human, Toxicity (TC50) PBMCs
Method: (§2) Cytotoxicity was evaluated using Peripheral Blood Mononuclear cells (PBMC) of volunteers donors (Royal Victoria Hospital, Montreal). These cells were purified by the ficoll-Paque PLUS according to the manufacturer (Amersham-Bioscience). PBMC were used at a density of 100 000 cells/ml in RPMI 1640 (Sigma) supplemented with 10% heat-inactivated fetal bovine serum, 0.3 g/L of L-glutamine, 2 g/L sodium carbonate, 100 U/ml of penicillin and 100 μg/ml of streptomycin (Sigma). Assays were done in 96-well microtiter plates (Costar 3595) and the cytotoxicity was evaluated after 24 hours of incubation at 37° C. in a 5% CO2 atmospheric incubator using the LDH Cytotoxicity detection kit, according to the manufacturer (Roche Diagnostic). […] FFA were diluted in ethanol (96%) and no more than 1% ethanol (final concentration) was used in assays. Ethanol (1%) was used as negative control.
(§3) This method measures the release of lactate dehydrogenase (LDH) from the cytosol of damaged cells into the supernatant (Roche Diagnostic).

[5] = system: Peripheral Blood Mononuclear cells (PBMC); assay: in vitro; conditions: human, 24 h
Method: as §2, §3

[6] = system: A. fumigatus; assay: Antifungal assay against A. fumigatus (optical density at 630 nm); type: cell-based; conditions: Aspergillus fumigatus; Sabouraud, 30° C., 40 h; commercial FFA
Method: as §1

[7] = system: Candida albicans ZK3379 strain (CAI-4 HWP1-lacZ); assay: C. albicans HWP1-lacZ beta-galactosidase and XTT assays (kinetics of germination inhibition in hyphae inducing media); type: cell-based
Method: Candida albicans ZK3379 strain (CAI-4 HWP1-lacZ; Hogan, D A, Vik A, Kolter R (2004). A Pseudomonas aeruginosa quorum-sensing molecule influences Candida albicans morphology. Mol Microbiol 54: 1212-1223.) was used for beta-galactosidase and XTT assays. Cells from this strain were grown in YPDA at 30° C. to a density of about 1×10^8 cells/ml (hemacytometer). These late exponentially growing cells were then washed twice with water and kept on ice until used. Germination was induced by incubating cells (final density of 5×10^5 cells/ ml) at 37° C. in 2.5 ml of either dextrose-free Sabouraud (Joshi et al., 1973), Lee's (Lee K L, Buckley H R, Campbell C C (1975). An amino acid liquid synthetic medium for the development of mycelial and yeast forms of Candida albicans. Sabouraudia 13: 148-153, Spider (Liu H, Kohler J, Fink Gr (1994). Suppression of hyphal formation in Candida albicans by mutation of a STE12 homolog. Science 266: 1723-1726 or Hypha-Forming Media (Biswas S K, Yokoyama K, Kamei K, Nishimur K, Miyaji M (2001) Inhibition of hyphal growth of Candida albicans by activated lansoprazole, a novel benzimidazole proton pump inhibitor Med Mycol 39: 283-285.), supplemented with FFAs. All lipids were dissolved in ethanol. Assays were performed in duplicate in 24-wells mictotiter plates (Costar 3526) without agitation. After appropriate incubation times (i.e. 0, 2, 4 or 6 h), microtiter plates were centrifuged for 5 min at 2000 rpm (Jouan inc. CR3i) and supernatents, discarded. XTT assays were done immediately and essentially as described (Honraet K, Goetghebeur E, Nelis H J (2005). Comparison of three assays for the quantification of Candida biomass in suspension and CDC reactor grown biofilms. J Microbiol Methods 63: 287-295). For beta-galactosidase assays, microtiter plates were frozen at −80° C. and processed later as described (Kippert F (1995). A rapid permeabilization procedure for accurate quantitative determination of beta-galactosidase activity in yeast cells. FEMS Microbiol Lett 128: 201-206; Hogan et al., 2004) but directly in microtiters plates. Absorbances were measured in 96-well microtiters plates using a microtiter plate reader (Microplate Reader MR600), equipped with filters of 410 nm (beta-galactosidase) and 490 nm (XTT), respectively.
As inhibition of germination of C. albicans by molecules could be the result of early and/or late blocking events, a more comprehensive analysis of the activity of free fatty acids was performed using multiple time points and other germ tube inducing media. Therefore, germination was monitored at 0, 2, 4 and 6 h in dextrose-free Sabouraud, Lee's, Spider and HFM7 (i.e. serum) media using the C. albicans HWP1-lacZ assay: beta-galactosidase measurements should reflect the morphological change from yeast cells to hyphal growth (Hogan et al., 2004). beta-galactosidase results were normalized using the XTT assay (Honraet et al., 2005) to correct for biomass increase. Microscopic observations of cells after 6 h incubation are also presented for each inducing conditions and correlated with beta-galactosidase data (FIG. 2).

[8] = system: Candida albicans SC5314 strain; assay: Germination inhibition assay (antihyphal growth activity); type: cell-based; conditions: for MIC: commercial free fatty acids, gravimetrical quantification, read-out: MIC, antihyphal growth activity of individual free fatty acids
Method: The Candida albicans SC5314 strain (Fonzi, W. A. and Irwin, M. Y. 1993. Isogenic strain construction and gene mapping in Candida albicans. Genetics 134: 717-728.) was used to investigate the antihyphal activity of whey cream lipids. This strain was routinely grown as yeast cells at 30° C. in YPD medium (1% yeast extract, 2% peptone, 2% dextrose). Germination was induced by incubating cells in dextrose-free Sabouraud (Difco; Joshi, K. R., Gavin, J. B., and Bremner, D. A. 1973. The formation of germ tubes by Candida albicans in various peptone media. Sabouraudia. 11: 259-262.) at 37° C. in 96-wells microtiter plates (Costar 3595). Briefly, cells from fresh YPD cultures were harvested and washed twice with sterile water. Washed cells were suspended in dextrose-free Sabouraud at a density of 5×10^3 cells/ml and then immediately distributed to microtiter wells containing an equal volume of dextrose-free Sabouraud supplemented with different concentrations of lipids. After 15 h incubation at 37° C. in an atmospheric incubator without agitation, cells were washed and fixed with a fresh 1% formaldehyde solution. The ability of lipids to inhibit germination was determined by microscopic observations.

[9] = Candida albicans, SC5314, complete inhibition of germination, 15 h, 37° C.
[10] = Candida albicans, SC5314, same MIC in μg/ml (in brackets)

For `CCCCCCCCCC(=O)O` [Capric acid (C10:0), capric acid], the IC50 ([1]; Candida albicans, SC5314, 40 h) is listed as 182 µM, the “toxicity for mammalian cells in vitro” value [2] is listed as “not toxic” and the “killing C. albicans yeast cells” value [3] is listed as “highly active”. For the same compound, the CC50 at 24 h [4] was 1430 ± 32 µM, the “TC50, PBMC” value [5] was “about 1.4 mM” and the IC50 [6] was 127 µM. The “germ tube emergence and elongation” value ([7]; all inducing conditions tested (dextrose-free Sabouraud, Lee's, Spider, HFM7), 0-6 h (FIG. 2)) was “completely inhibited the emergence of germ tubes”, the MIC [8, 9] was 9 µM and the MIC [8, 10] was 1.55 µg/mL. The “activity at inhibiting C. albicans germination” value ([8]; individual commercial free fatty acids, highest concentration used 81 μM) was “similarly active to lauric acid”.
With `CCCC/C=C\CCCCCCCC(=O)O` [Myristoleic acid (C14:1n-5), myristoleic acid] the IC50 ([1]; Candida albicans, SC5314, 40 h) was 82 µM, the IC50 ([1]; 40 h) was 81.9 ± 9.2 µM and the CC50 at 24 h [4] was 72 µM. The CC50 [5] was 71.9 ± 6.2 µM, the IC50 [6] was 192 µM and the “appearance of germ tubes” value ([7]; Spider and HFM7 media) was “partially inhibited the appearance of germ tubes”. For the same compound, the “appearance of germ tubes” value ([7]; dextrose-free Sabouraud and Lee's inducing media) was “strongly inhibited the appearance of germ tubes”, the MIC [8, 9] was 9 µM and the MIC [8, 10] was 2.04 µg/mL. For the same compound, the MIC ([8]; complete inhibition of germination, 15 h, 37° C.) was 9 µM.
